Measurements taken from article PMC5289526, “Crystal Structure and Catalytic Mechanism of CouO, a Versatile C-Methyltransferase from Streptomyces rishiriensis” (PLoS ONE, 2017).

Biological target: T1, CouO (Streptomyces rishiriensis, UniProt Q9F8T9)
T1 construct: recombinant from E. coli; pET26b-CouO template, pMS470 vector in E. coli TOP10F' for activity assays
Experiment: X-ray crystal structure, […] Å
Format: binding
Conditions: one SAH in each of two chains; cofactor site

T1 sequence (Q9F8T9 whole entry): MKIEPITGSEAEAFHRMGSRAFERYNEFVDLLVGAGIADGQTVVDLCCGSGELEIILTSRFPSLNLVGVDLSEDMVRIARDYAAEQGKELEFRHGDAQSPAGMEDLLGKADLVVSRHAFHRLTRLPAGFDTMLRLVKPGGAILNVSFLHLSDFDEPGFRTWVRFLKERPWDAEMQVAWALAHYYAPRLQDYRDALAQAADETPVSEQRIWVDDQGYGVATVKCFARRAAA

## Nc1ncnc2c1ncn2[C@@H]1O[C@H](CSCC[C@H](N)C(=O)O)[C@@H](O)[C@H]1O [SAH]
  X-ray crystal structure, 2.05 Å: one SAH cofactor molecule was present in each chain
